Measured values reported in patent US20250281406A1, “COMPOUNDS, COMPOSITIONS AND METHODS FOR DELIVERY OF BIOLOGICALLY ACTIVE AGENTS” (ROYAL MELBOURNE INSTITUTE OF TECHNOLOGY, priority 2022, published 2025).
One block for each compound: values may come before it.

Tests used:
[1] = Particle size and polydispersity index of lipid nanoparticles by dynamic light scattering; assay type: physicochemical; settings: mean ± SD n=3
Description: The average hydrodynamic diameter and polydispersity index (PDI) of lipid nanoparticles were measured by dynamic light scattering (DLS) using a Malvern Zetasizer Nano ZS (Malvern Instruments, UK). All measurements were performed at 25° C. (n=3) by loading the lipid formulations (10 μL) into clear 96-well half-area polystyrene plates and diluting with 190 μL milli-Q water (Zhai et al. 2015).

[2] = Mesophase (phase behaviour) of lipid nanoparticles by synchrotron SAXS; assay type: physicochemical
Description: Nanoparticle preparations (50 μL) were loaded into a transparent 96-well half-area polystyrene plate (Greiner Bio-One, Interpath Inc., VIC, Australia), and 50 μL of a suitable buffer solution (Citrate buffer) of specified pH was added to the plate. Phase behaviour of the nanoparticles was characterized at the SAXS/WAXS beamline of the Australian Synchrotron. The instrument used an X-ray wavelength of λ=1.128 Å (11.0 keV) with atypical flux of approximately […]. The sample to detector distance was chosen as 1.6 m which provided a q-range of 0.01-0.5 Å^−1 (scattering vector q=4π sin (θ/2)/λ, whereby θ is the scattering angle and λ is the wavelength). Sample scattering patterns were obtained at 25° C. and 37° C. following the procedure reported in the literature. The plate was placed in a holder perpendicular to the X-ray beam. The sample holder was moved by motors that were controlled by in-house ScatterBrain software for automatic SAXS screening. The sample temperature was controlled by a circulating water bath and kept at 25° C. or 37° C. Two-dimensional X-ray diffraction images were recorded on a Decris-Pilatus 1-M detector using ScatterBrain. The scattering images were integrated into one dimensional plots of intensity versus q for phase identification. The mesophase of the nanoparticles were assigned by matching the relative positions of the scattering peaks with known patterns for bicontinuous cubic, hexagonal, lamellar, and micellar cubic phase. The lattice parameter of the nanoparticles were calculated using the IDL-based software AXcess following the described method (Tran et al. 2018; Tran et al. 2016).
As detailed in Example 2 above, lipid nanoparticles described herein were prepared by doping the synthesised amino lipids into MO at 8 different compositions (RMO=0.05, 0.1, 0.15, 0.2, 0.25, 0.3, 0.4, 0.5) and dispersed with Pluronic F-127. Mesophase structure of the drug-free formulations was determined by SAXS over ten different pH values (a pH range of 2.5 to 10). FIG. 3 represents the SAXS partial phase diagrams of these nanoparticles at 25° C. The shape of an amphiphile can be characterised by the critical packing parameter (CPP). CPP=V/al, in which V is the effective volume of the amphiphile's hydrophobic tail, a is the effective cross-sectional area of the headgroup, and l is the effective length of the hydrocarbon chain. Lamellar phases (Lα) are typically observed with a zero interfacial curvature. For CPP values greater than 1, inverse phases, such as Q2 and H2 phases, are formed with increasing negative interfacial curvatures. The Q2 phase consists of lipid bilayers arranged in periodic 3D structures by twisting the bilayers into the shape of infinite periodic minimal surfaces. The H2 is a closed, extended micellar columnar structure, where there is no direct contact between the water inside and outside the H2 phase.

[3] = Drug loading and encapsulation efficiency of SN-38 nanoparticles by HPLC; assay type: physicochemical
Description: The amount of drug loading (DL) and encapsulation efficiency (EE) were determined for each of the four formulations of Example 5 using an HPLC method.
The nanoparticles containing the drug was centrifuged at 1000×g for 25 min at 25° C. to remove any un-encapsulated drug agglomerates. The supernatant was collected and vortexed for 10 min at 2500 rpm for uniform distribution.
For the SN-38 drug content assay, a UV variable detector at a wavelength of 265 nm and an Agilent Zorbax SB-C18 column (4.6 mm×250 mm, five μm) were utilised. The mobile phase consisted of a 50:50 (v/v) mixture of 25 mM NaH2PO4 (pH=3.1) buffer and acetonitrile. The mobile phase pH was maintained at 3.8 to ensure the analyte, SN-38, was in the closed lactone ring form during the assay. The sample for HPLC was prepared by diluting the nanoparticles 100 times with HPLC solvents (10 μL of the formulation with 990 μL 50/50 mixture of buffer and acetonitrile). During the assay, an aliquot of 20 μL of the sample was injected in duplicate into the HPLC system at a flow rate of 1 ml/min. The SN-38 content in the formulation was quantitatively determined using a standard curve prepared as outlined in previously published journal articles (Zhang et al. 2004; Escoriaza et al. 2000).
The following equation was used calculate the encapsulation efficiency (EE %) […]

[4] = cited from earlier work
[5] = In vitro release of SN-38 by dynamic dialysis; assay type: physicochemical; settings: pure-drug suspension, no lipid nanocarriers, within 60-90 min
Description: In vitro release of SN-38 from the nanoparticles was evaluated using a dynamic dialysis method (Zambito, Y. International Journal of Pharmaceutics 2012, 434 (1), 28-34). The drug release rate was determined by placing the dispersion in a dialysis tube (Pur-A-Lyzer™ Maxi Dialysis tube molecular weight cut off 3500) and exhaustively dialysing.
After removing the free drug, the highest SN-38 loaded nanoparticles (1 mL formulation) were placed inside the dialysis tube. The dialysis tube was then immersed in a 1000 mL buffer maintained at 37±1.0° C. and stirred at 400 rpm. The analysis of the separation of free drug from drug-loaded formulations was carried out over a period of 420 min. Release experiments were performed in triplicate on three independently prepared SN-38 loaded formulations. For physiological pH, experiments were carried out by dialysing the formulations against 1000 mL of phosphate buffer (pH 7.0). Lower pH experiments were carried out by dialysing the formulations against 1000 mL of phosphate buffer adjusted to the required pH. The SN-38 that remained in the dialysis tube was quantitatively measured by the HPLC method. At predetermined time intervals (60 min, 120 min, 240 min and 420 min), 10 μL of the sample was withdrawn from the dialysis tube and diluted with 990 μL of the HPLC solvent. […]

[6] = MO nanoparticles with amino lipid at RMO 0.05, Pluronic F-127, 25° C.
[7] = MO nanoparticles with amino lipid at RMO 0.1, Pluronic F-127, 25° C.
[8] = MO nanoparticles with amino lipid at RMO 0.15, Pluronic F-127, 25° C.
[9] = MO nanoparticles with amino lipid at RMO 0.2, Pluronic F-127, 25° C.
[10] = MO nanoparticles with amino lipid at RMO 0.25, Pluronic F-127, 25° C.
[11] = MO nanoparticles with amino lipid at RMO 0.3, Pluronic F-127, 25° C.
[12] = MO nanoparticles with amino lipid at RMO 0.4, Pluronic F-127, 25° C.
[13] = MO nanoparticles with amino lipid at RMO 0.5, Pluronic F-127, 25° C.

Structure (SMILES): CCCCCCCC/C=C\CCCCCCCC(=O)NCCN1CCCCC1 [Lipid-13, N-(2-(piperidin-1-yl)ethyl)oleamide]
PDI of the formulations [1, 6]: 0.25 ± 0.03
Particle Size in nm [1, 6]: 180 ± 3 nm
PDI of the formulations [1, 7]: 0.20 ± 0.04
Particle Size in nm [1, 7]: 176 ± 4 nm
PDI of the formulations [1, 8]: 0.23 ± 0.04
Particle Size in nm [1, 8]: 168 ± 4 nm
PDI of the formulations [1, 9]: 0.22 ± 0.05
Particle Size in nm [1, 9]: 185 ± 6 nm
PDI of the formulations [1, 10]: 0.19 ± 0.03
Particle Size in nm [1, 10]: 180 ± 2 nm
PDI of the formulations [1, 11]: 0.23 ± 0.03
Particle Size in nm [1, 11]: 194 ± 5 nm
PDI of the formulations [1, 12]: 0.15 ± 0.05
Particle Size in nm [1, 12]: 200 ± 5 nm
PDI of the formulations [1, 13]: 0.18 ± 0.05
Particle Size in nm [1, 13]: 209 ± 5 nm
pH difference within which the change from H2 to Q2 is observed ([2]; RMO=0.2-0.3): ≤ 0.5 pH unit
pH of H2→Q2 transition ([2]; RMO=0.2-0.3): 7.0 pH

Structure (SMILES): CCc1c2c(nc3ccc(O)cc13)-c1cc3c(c(=O)n1C2)COC(=O)[C@]3(O)CC [SN-38]
Loading relative to solubility of SN-38 in water ([3]; 844 μg/ml loading): ~100 times
Loading of SN-38 ([3]; highest loading achieved in MO/Lipid-10 nanoparticles): 844 µg/mL
Solubility in water [4]: 7 to 11 µg/mL
SN-38 released through dialysis membrane [5]: More than 90%

Next, values leading:

PDI of the formulations [1, 6]: 0.16 ± 0.03
Particle Size in nm [1, 6]: 217 ± 6 nm
PDI of the formulations [1, 7]: 0.21 ± 0.02
Particle Size in nm [1, 7]: 224 ± 3 nm
PDI of the formulations [1, 8]: 0.2 ± 0.05
Particle Size in nm [1, 8]: 259 ± 8 nm
PDI of the formulations [1, 9]: 0.19 ± 0.03
Particle Size in nm [1, 9]: 271 ± 4 nm
PDI of the formulations [1, 10]: 0.39 ± 0.03
Particle Size in nm [1, 10]: 250 ± 3 nm
PDI of the formulations [1, 11]: 0.22 ± 0.02
Particle Size in nm [1, 11]: 246 ± 4 nm
PDI of the formulations [1, 12]: 0.24 ± 0.03
Particle Size in nm [1, 12]: 244 ± 6 nm
PDI of the formulations [1, 13]: 0.25 ± 0.04
Particle Size in nm [1, 13]: 265 ± 4 nm
Shift of H2 to Q2 transition at 37° C. compared to 25° C. (higher) ([2]; RMO 0.4, pH 4.0 to 7.5): 0.5 pH unit
pH at which Q2 is reached in the transition from H2 at pH 7.5 ([2]; RMO=0.4-0.5, 25° C.): 5.5 pH
pH resulting in liposome formation ([2]; RMO=0.4-0.5, further decrease in pH): 4.0 pH
RMO at which the transition from Q2 to H2 occurred ([2]; pH 7, MO nanoparticles): 0.4
Structure (SMILES): CCCCCCCC/C=C\CCCCCCCC(=O)NCc1ccncc1 [Lipid-10, N-(pyridine-4-ylmethyl)oleamide]

PDI of the formulations [1, 6]: 0.23 ± 0.04
Particle Size in nm [1, 6]: 284 ± 2 nm
PDI of the formulations [1, 7]: 0.18 ± 0.03
Particle Size in nm [1, 7]: 255 ± 4 nm
PDI of the formulations [1, 8]: 0.20 ± 0.03
Particle Size in nm [1, 8]: 300 ± 7 nm
PDI of the formulations [1, 9]: 0.23 ± 0.02
Particle Size in nm [1, 9]: 267 ± 4 nm
PDI of the formulations [1, 10]: 0.28 ± 0.02
Particle Size in nm [1, 10]: 313 ± 4 nm
PDI of the formulations [1, 11]: 0.20 ± 0.02
Particle Size in nm [1, 11]: 290 ± 4 nm
PDI of the formulations [1, 12]: 0.10 ± 0.02
Particle Size in nm [1, 12]: 272 ± 5 nm
PDI of the formulations [1, 13]: 0.21 ± 0.03
Particle Size in nm [1, 13]: 300 ± 4 nm
Phase observed ([2]; RMO=0.4, neutral pH, MO nanoparticles): L2 phase
pH of transition from L2 to Q2 ([2]; RMO=0.4-0.5): 3.0 pH
Structure (SMILES): CCCCCCCC/C=C\CCCCCCCC(=O)NCc1ccccn1 [Lipid-11]

PDI of the formulations [1, 6]: 0.23 ± 0.03
Particle Size in nm [1, 6]: 214 ± 4 nm
PDI of the formulations [1, 7]: 0.20 ± 0.05
Particle Size in nm [1, 7]: 218 ± 3 nm
PDI of the formulations [1, 8]: 0.20 ± 0.05
Particle Size in nm [1, 8]: 239 ± 3 nm
PDI of the formulations [1, 9]: 0.30 ± 0.03
Particle Size in nm [1, 9]: 250 ± 2 nm
PDI of the formulations [1, 10]: 0.25 ± 0.03
Particle Size in nm [1, 10]: 191 ± 8 nm
PDI of the formulations [1, 11]: 0.25 ± 0.05
Particle Size in nm [1, 11]: 206 ± 11 nm
PDI of the formulations [1, 12]: 0.40 ± 0.04
Particle Size in nm [1, 12]: 205 ± 6 nm
PDI of the formulations [1, 13]: 0.38 ± 0.03
Particle Size in nm [1, 13]: 137 ± 6 nm
Structure (SMILES): CCCCCCCC/C=C\CCCCCCCC(=O)NCCN1CCOCC1 [Lipid-12]
